Test results published in patent US10709119B2, “Methods of agent delivery into eggs and embryos of egg-producing aquatic animals for drug screening, agent toxicity assay and production of infertile fish” (University of Maryland Baltimore County, priority 2015, dated 2020).

Experiments:
[1] = system: chorion of zebrafish eggs; experiment: Uptake of fluorescein-dextran by zebrafish eggs incubated with guanidine-containing compounds (chorion permeability); type: in vivo; details: 40 mM compound, 1 μM of 10, 20 or 40 KD fluorescein-dextran, 24 hours, versus untreated eggs
Protocol: Zebrafish eggs were incubated in solutions that contained 1 μM of 10, 20 or 40 KD fluorescein-dextran with either 0 or 40 mM of arginine, guanidine-HCl or guanidine-thiocyanate for 24 hours.
40 zebrafish eggs were transferred into each well of 48-well plates that contained 300 μl of fresh tank system water. After the allocation of eggs, system water in each well was replaced with 300 μl of water that contained 0 or 40 μM of poly-arginine (9-arginine polymer) and 1 μM of 10 KD fluorescein-dextran. After 4 hours of incubation the eggs were examined using a MZ12 stereomicroscope (Leica, Buffalo Grove, USA), or an Axioplan 2 fluorescence microscope (ZEISS, Thornwood, N.Y., USA). Both microscopes were equipped with a DP70 digital camera (Olympus, Center Valley, Pa., USA).

Atlantic salmon eggs = experiment: Induction of sterility in Atlantic salmon by immersion of eggs in salmonids' dnd-MO or dnd-MO-Vivo; details: 10-month-old fish
Protocol: A salmonids' dnd-MO (see Example 5) or a dendrimeric octaguanidine with a triazine core also known as Vivo, which was conjugated to salmonids' dnd-MO, resulting in salmonids' dnd-MO-Vivo, was used to induce sterility in Atlantic salmon and was tested by administering the following: • I: Salmonids' dnd-MO-Vivo 10 μM for 48 hours, administration to fertilized eggs at the beginning of water activation (within 1 minute). • II: Salmonids' dnd-MO-Vivo 10 μM for 48 hours, administration to unfertilized eggs with the immersion medium of the ovarian fluid. The eggs were fertilized after 48 hours of incubation. • III: Salmonids' dnd-MO-Vivo 10 μM for 48 hours, administration to unfertilized eggs with the immersion medium that contains salt, Tris (pH 8.0), Glycine, and 5% of fish serum. The fertilization was conducted after 48 hours of incubation. • IV: Salmonids' dnd-MO 20 μM for 48 hours, administration to unfertilized eggs with the immersion medium of the ovarian fluid. The eggs were fertilized after 48 hours of incubation. • V: Salmonids' dnd-MO 20 μM for 48 hours, administration to unfertilized eggs with the immersion medium that contains salt, Tris (pH 8.0), Glycine, and 5% of fish serum. The eggs were fertilized after 48 hours of incubation. • VI: Water or immersion medium only without neither salmonids' dnd-MO-Vivo nor dnd-MO as controls.

[2] = system: rainbow trout embryos / unfertilized eggs; experiment: Induction of sterility in rainbow trout by immersion of eggs in salmonids' dnd-MO-Vivo; details: 10 μM for 48 hours
Protocol: A dendrimeric octaguanidine with a triazine core also known as Vivo, was conjugated to salmonids' dnd-MO, 5′-[…]-3′ (SEQ ID NO. 3) and used in an immersion containing rainbow trout embryos in water, or unfertilized eggs in ovarian fluid or fertilization diluent. The ability of methods disclosed herein to induce sterility in rainbow trout was tested by administering the following:
I: Salmonids' dnd-MO-Vivo 10 μM for 48 hours, administration to fertilized eggs at the beginning of water activation (within 1 minute)
II: Salmonids' dnd-MO-Vivo 10 μM for 48 hours, administration to unfertilized eggs with the immersion medium of the ovarian fluid. The fertilization was conducted after 48 hours of incubation.
III: Salmonids' dnd-MO-Vivo 10 μM for 48 hours, administration to unfertilized eggs with the fertilization diluent that contains salt, Tris (pH 8.0), Glycine, and 5% of fish serum. The fertilization was conducted after 48 hours of incubation.
IV: Water or immersion medium only without salmonids' dnd-MO-Vivo as controls.

N=C(N)NCCC[C@H](N)C(=O)O [arginine]
uptake of fluorescein-dextran in the eggs (green fluorescence) [1]: enhanced the uptake of fluorescein-dextran

salmonids' dnd-MO: antisense Morpholino oligomer against salmonid dead end, 5′-CTGACTTGAACGCTCCTCCATTATC-3′ (SEQ ID NO. 3) (all phosphorodiamidate morpholino (PMO))
gonad morphology (Atlantic salmon eggs; dnd-MO 20 μM for 48 hours, treatments IV, V (unfertilized eggs in ovarian fluid or immersion medium)): developed into a thin filament-like tissue
gonadal development in Atlantic salmon (Atlantic salmon eggs; dnd-MO 20 μM for 48 hours, unfertilized eggs): blocked gonadal development

N#CS.N=C(N)N [guanidine-thiocyanate]
uptake of fluorescein-dextran in the eggs (green fluorescence) [1]: enhanced the uptake of fluorescein-dextran

salmonids' dnd-MO-Vivo: Vivo (dendrimeric octaguanidine with a triazine core) conjugated to salmonids' dnd-MO, 5′-CTGACTTGAACGCTCCTCCATTATC-3′ (SEQ ID NO. 3) (all phosphorodiamidate morpholino (PMO); Vivo octaguanidine dendrimer conjugated, attachment position not given here)
infertility in rainbow trout [2]: induced infertility
histological examination of gonadal tissue ([2]; treatments I, II and III): under-developed without advanced gonadal structure or germ cells
gonad morphology ([2]; treatments I, II and III (fertilized eggs at water activation; unfertilized eggs in ovarian fluid or fertilization diluent)): developed into a thin filament-like tissue
gonadal development in Atlantic salmon (Atlantic salmon eggs; dnd-MO-Vivo 10 μM for 48 hours): blocked gonadal development
gonad morphology (Atlantic salmon eggs; dnd-MO-Vivo 10 μM for 48 hours, treatments I, II, III): developed into a thin filament-like tissue

Cl.N=C(N)N [guanidine-HCl]
uptake of fluorescein-dextran in the eggs (green fluorescence) [1]: enhanced the uptake of fluorescein-dextran
